The subject of assay [1] is IL-1beta production in mouse microglial cell line. The assay can be described thus: Interleukin-1β microglial cell assay. The assay is classed as cell-based. The following applies: LPS 10 μg/ml and IFN gamma 10 ng/ml, 24 hours, read-out: EC50, inhibition of IL-1beta production. As for the experimental part:
This assay measures the release of IL-1β from a mouse microglial cell line following an inflammatory challenge with LPS and interferon-gamma. The ability of test articles to inhibit microglial cell activation and IL-1β release is determined by co-incubation of the test article with the inflammatory challenge.
Mouse microglial cells were seeded in poly-D-lysine coated 96-well plates at a density of 10,000 cells/well and allowed to attach for 24 hours. Cells were stimulated by addition of LPS (10 μg/ml) and IFN gamma (10 ng/ml) in the presence or absence of test article. The cells were then incubated for 24 hours at 37° C., after which time the media was removed and used for cytokine determination as described below.
Viability of mouse microglial cells after exposure to the test article was determined using a fluorescent viability dye, Cell Tracker Green. Cell Tracker Green was used at a working concentration of 5 μM in 1×HBSS. Cells were washed once with HBSS (200 μl/well) and 100 μl Cell Tracker Green was added to each well. Cells were then incubated at 37° C. for 30 minutes, after which time the Cell Tracker was removed and the cells were washed once with HBSS (200 μl/well). 100 μl fresh HBSS was added to each well and the plate was read on a Fluoroskan plate reader using an excitation wavelength of 485 nm and an emission wavelength of 538 nm.
Solutions: • Wash Buffer: PBS 1 L+500 μl Tween 20 (final 0.05%) pH 7.2-7.4. • Blocking Buffer: 500 ml PBS+5 g BSA V (1%)+25 g Sucrose (5%)+0.25 g Sodium Azide (0.05%). • Reagent Diluent: 500 ml PBS+5 g BSA V (1%) pH 7.2-7.4 and filter sterilize through 0.2 μm. • Stop Solution: 2N sulfuric acid.
Duo Set Preparations: • 1. The IL-1β capture antibody was reconstituted in 1 ml of PBS to give a final concentration of 720 μg/ml, and the working concentration was 4 μg/ml. For coating one 96-well plate (at 100 μl/well) 56 μl of the 720 μg/ml stock was diluted into 10 ml of PBS. • 2. The IL-1β standards were reconstituted in 0.5 ml of Reagent Diluent (70 ng/ml). For a high standard of 1 ng/ml (2 wells at 100 μl each+enough for series dilution) 7.1 μl of the 70 ng/ml standard were diluted into 0.5 ml of Reagent Diluent • 3. The IL-1β detection antibody was reconstituted in 1 ml of Reagent Diluent to give a final concentration of 18 μg/ml and the working concentration is 100 ng/ml. For one 96-well plate (at 100 μl/well) 56 μl of the 18 μg/ml stock was diluted into 10 ml of Reagent Diluent.
• The Costar EIA Hi-binding plate was coated with capture antibody at 4 μg/ml. Each well was coated with 100 μl, and the plate was sealed and incubated overnight at room temperature. • Each well was aspirated and washed 3× with Wash Buffer. Each well was filled to the top, dispensed, and any remaining buffer was removed by inverting the plate and gently blotting against clean paper towels. • Non-specific binding sites were blocked by adding 300 μl of Blocking Buffer to each well, and after sealing incubating for at least 1 hour at room temperature. • After washing the plate was now ready for the samples. Assay Procedure: • 100 μl of either standard or sample were added in each well of the capture-coated and pre-blocked plate. The plate was sealed and incubated for 2 hours at room temperature, followed with washing. • 100 μl of the detection antibody (10 ng/ml) were added to each well. […]

Assay [2] has as its system dopaminergic neuronal cell line. The assay can be described thus: High glutamate-induced oxidative stress assay (HGOS). The assay is classed as cell-based. The following applies: Mus musculus; 30 mM glutamate, 16 hrs; read-out: EC50, protection against HGOS cell injury and cell death. In short, it runs like this:
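Mouse dopaminergic cells (passage ≤ p11) were grown 72 h at 33 °C, washed in HBSS, then exposed 16 h at 37 °C to compounds in DMEM-No Glu with 1 mM glucose and 30 mM glutamate. Surviving cells were stained 30 min with 5 μM Cell Tracker Green and fluorescence read at 485/538 nm.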

Assay [3] deals with MPTP treated C57/BL6 mice. Put plainly: MPTP animal model, pole test. The assay is classed as in vivo, mouse. The following applies: for effect on the functional deficit produced by MPTP: 30 mg/kg/day, each of days 1-3. As for the experimental part:
MPTP/MPP^+-induced neurodegeneration of dopaminergic neurons is a well characterized model which is therefore widely used to understand the pathogenesis of Parkinson's disease. The compounds were tested against MPTP/MPP^+ induced neuronal death in vitro and in vivo as shown in the following examples. In vitro evaluation of protection against mitochondrial dysfunction is carried out using substantia nigra-derived dopaminergic progenitor cell line (as described in Son J H, et al J W. (1999) J Neurosci, 19:10-20), exposed to 1-methyl-4-phenylpyridinium (MPP^+). In vivo evaluation was carried out using mice that had been treated with 1-methyl-4-phenyl-1,2,3,6-tetrahydropyridine (MPTP), a neurotoxin. […] In a number of species, including humans, […] and rodents, MPTP produces an irreversible and severe parkinsonian syndrome which includes virtually all the clinical features of the disease.
Male C57/BL6 mice (Harlan, Ind.), weight 25-30 g, were used in all studies. MPTP-HCl (Sigma) was administered i.p. according to one of the following protocols. The maximum volume which was given per injection is 200 μL. In all studies, animals were euthanized with carbon dioxide and, brains removed for subsequent determination of dopamine depletion where appropriate.
The pole test evaluates motor co-ordination.
A rough surfaced metal pole (diameter 8 mm, height 50 cm) protruding from a cage filled with animal bedding was used for this test. Animals were placed head upwards at the top of the pole. They were required to turn and descend face downwards and the time taken for this was recorded (latency to reach bedding). Timing was started when the individual animal gripped the top of the pole and was stopped when all four limbs contacted the bedding.
All test compounds were administered ip. The maximum volume which was given per injection was 200 μL. Compounds were dosed up to twice daily, two days prior and 7 days post MPTP treatment.
A baseline reading was taken for each animal one day prior to MPTP treatment. All subsequent readings were normalized to the individual animal's baseline. Values were expressed as a percent baseline.
Data is percent baseline and expressed as mean±std dev: […]
Compound and vehicle given for 9 days in total, 2 days prior to MPTP and 7 days after MPTP treatment. L-DOPA given 1 hour prior to the pole test each day.

Assay [4] addresses T1, human recombinant 5-lipoxygenase (Homo sapiens, UniProt P09917).
T1 construct: purchased Cayman 60402
T1 sequence (P09917 1-674): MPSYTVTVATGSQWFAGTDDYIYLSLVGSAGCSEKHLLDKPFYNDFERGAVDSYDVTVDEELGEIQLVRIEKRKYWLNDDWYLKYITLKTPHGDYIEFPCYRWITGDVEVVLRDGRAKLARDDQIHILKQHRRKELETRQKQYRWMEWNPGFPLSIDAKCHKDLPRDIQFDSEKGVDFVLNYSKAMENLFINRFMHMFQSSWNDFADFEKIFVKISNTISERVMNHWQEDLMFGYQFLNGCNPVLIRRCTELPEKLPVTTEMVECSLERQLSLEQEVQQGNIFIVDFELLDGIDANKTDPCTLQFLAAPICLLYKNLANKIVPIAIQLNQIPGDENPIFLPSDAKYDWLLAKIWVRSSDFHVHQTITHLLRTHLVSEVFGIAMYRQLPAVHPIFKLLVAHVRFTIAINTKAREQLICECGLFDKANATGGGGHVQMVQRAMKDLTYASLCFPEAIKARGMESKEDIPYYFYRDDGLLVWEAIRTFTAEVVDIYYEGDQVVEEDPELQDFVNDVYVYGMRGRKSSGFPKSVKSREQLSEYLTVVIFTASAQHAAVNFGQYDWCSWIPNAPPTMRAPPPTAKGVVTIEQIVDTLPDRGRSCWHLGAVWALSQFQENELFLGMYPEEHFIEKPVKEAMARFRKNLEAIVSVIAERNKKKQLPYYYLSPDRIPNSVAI
The assay can be described thus: 5-Lipoxygenase enzyme assay. Format: biochemical. Conditions: 70 μM arachidonic acid, pH 7.4. The procedure, abridged:
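Human recombinant 5-LO (0.5 U) with compound in 50 mM Tris-HCl pH 7.4 reacted with 70 μM arachidonic acid for 10 min at room temperature. Hydroperoxide formation was read via FOX xylenol orange complex at 620 nm after 1 h; compounds at 5 concentrations from 10 μM, in triplicate.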

Where [5] appears, read: L-DOPA given 1 hour prior to the pole test, mean±std dev.

Each structure is given as a SMILES string.

In the case of `CC(C)=CCc1c(O)c2c(c3c1CCC(C)(CCC(=O)O)O3)C1CCC2C1` (stereo not shown) [3-[6-hydroxy-2-methyl-5-(3-methyl-but-2-enyl)-3,4,7,8,9,10-hexahydro-7,10-methano-2H-benzo[h]chromen-2-yl]-propionic acid], in assay [1], the concentration for a half-maximal effect (EC50) was no more than 20 µM.
`CC(=O)Oc1c(CC=C(C)C)c2c(c3c1C1CCC3C1)OC(C)(C)CC2` (stereo not shown) [Acetic acid 2,2-dimethyl-5-(3-methyl-but-2-enyl)-3,4,7,8,9,10-hexahydro-7,10-methano-2H-benzo[h]chromen-6-yl ester]: the results for the EC50 in assay [1] and in assay [2] were no more than 20 µM and no more than 1 µM, respectively.
With `COC(=O)CCC1(C)CCc2cc(O)c3c(c2O1)C1CCC3C1` (stereo not shown) [3-(6-Hydroxy-2-methyl-3,4,7,8,9,10-hexahydro-7,10-methano-2H-benzo[h]chromen-2-yl)-propionic Acid Methyl Ester], the “effect on the functional deficit produced by MPTP” value in assay [3] is listed as “significantly reduced the functional deficit produced by MPTP”. For the same molecule, the IC50 in assay [4] was no more than 5 µM.
For `CC1(CCC(=O)O)CCc2cc(O)c3c(c2O1)C1CCC3C1` (stereo not shown) [3-(6-Hydroxy-2-methyl-3,4,7,8,9,10-hexahydro-7,10-methano-2H-benzo[h]chromen-2-yl)-propionic Acid], the “effect on the functional deficit produced by MPTP” value in assay [3] is given as “significantly reduced the functional deficit produced by MPTP”.
On to `CC1(CCC(=O)O)CCc2cc(O)c3c(c2O1)C1CCCC3CC1` (stereo not shown) [3-(6-Hydroxy-2-methyl-3,4,7,8,9,10-hexahydro-7,10-propano-2H-benzo[h]chromen-2-yl)-propionic Acid], for which the EC50 in assay [1] is no more than 20 µM.
In the case of `N[C@@H](Cc1ccc(O)c(O)c1)C(=O)O` [L-DOPA], in assay [3] (setting [5]), the “pole test, percent baseline, Day 1” value came out at 110 ± 13.2 percent baseline; the “pole test, percent baseline, Day 2” value was 97.9 ± 20.0 percent baseline; the “pole test, percent baseline, Day 3” value stood at 100.1 ± 14.8 percent baseline.

What is called EC50 is the concentration needed to bring the measured effect to its halfway point. What is called IC50 is the midpoint of a concentration-inhibition curve.

The values are drawn from patent US7875607B2, “7,8-bicycloakyl-chroman derivatives” (Ampere Life Sciences, Inc., priority 2004, dated 2011).
